Source: patent US9050301B2, “Pharmaceutical composition for treatment of corneal endothelial wounds containing angiogenin” (Chung-Ang University Industry-Academy Cooperation Foundation, priority 2013, dated 2015)

Assays:
[1] = tested on: rabbit corneal endothelium; experiment: Corneal transparency grade by slit-lamp after trans-corneal freezing damage; assay type: in vivo; conditions: mean ± SE
Method: (§1) 30 eyeballs of 15 healthy white New Zealand rabbits weighing about 2.0 kg to about 3.0 kg without external opacification were anesthetized by intramuscular injection with 12.5 mg/kg of tiletamine/zolazepam (Zoletil®, VirbacLab, France) and 12.5 mg/kg of zylazine (Rompun®, BayerKorea, Korea). Afterwards, 0.5% povidone-iodine was used for disinfection of the whole range of experimental sight. Referring to FIG. 1, an 8 mm-diameter stainless steel rod as a probe was immersed in liquid nitrogen for 3 minutes, removed therefrom once the temperature of the liquid nitrogen reached −196° C., and brought into contact to the central cornea for 15 seconds. Then, each of the eyeballs was washed with 10 cc of 0.9% saline solution. In order to prevent the occurrence of corneal infection, the rabbit corneas were given instillation of Levofloxacin (Cravit®, Santen, Japan) three times a day for 3 days after the damage was induced.
(§2) 3 groups consisting of 10 eyeballs given instillation of angiogenin (200 μg/mL), 7 eyeballs given Y-27632 (10 mM) inhibitor of Rho-associated coiled-coil kinase (ROCK) pathway, and 7 eyeballs as a control group given phosphate-buffered solution (PBS) were each subjected to 50 μl of instillation at a time, and more particularly, 6 times a day for the first 2 days, and then, 4 times a day for the following 2 days, starting immediately after inducing freeze-damages to the trans-corneal endothelium. That is, the instillation was performed 20 times in total for 4 days.
Then, the groups were subjected to the evaluation of corneal opacity and corneal edema by using a digital camera (VLUUNV100HD, Samsung, Suwon, Korea) to obtain images taken in a diagonal direction.
Experiments have been carried out to identify effects of angiogenin-induced PI3k-Akt signaling pathway in terms of recovering the corneal transparency after inducing damages to the corneal endothelium. After inducing freeze-damages to the corneal endothelium, 4 eyeballs out of 30 rabbit eyeballs in total were subjected to 50 μl of each of 200 μg/mL of angiogenin and 200 μM of PI3k-Akt pathway inhibitor, LY294002 instillation at a time every 3 minutes, and more particularly, 6 times a day for the first 2 days, and then, 4 times a day for the following one day. That is, the instillation was performed 16 times in total for 3 days.

[2] = tested on: rabbit corneal endothelium; experiment: Central corneal thickness by ultrasonic pachymeter after trans-corneal freezing damage; assay type: in vivo
Method: as §1, §2
After inducing freeze-damages to trans-corneal of all the eyeballs from the group given instillation of angiogenin, the group given instillation of Y-27632, and the control group, the central corneal thickness was measured 3 times by using an ultrasonic corneal pachymeter (POCKET-II, Quantel medical, Clemont-Ferrand, France) at every 48 hours (2nd day), 72 hours (3rd day), 144 hours (6th day), and 192 hours (8th day), thereby calculating a mean value thereof. Here, the maximum measurable value of the ultrasonic corneal pachymeter was referred to 1,000 μm so the maximum corneal thickness was also considered as 1,000 μm.

[3] = tested on: human corneal endothelial cells; experiment: In vitro scratch wound healing of cultured human corneal endothelial cells; assay type: cell-based; conditions: for Wound healing index compared with the control group: 6 and 24 hours, angiogenin 5 μg/ml, Y-27632 10 μM
Method: A corneal endothelial tissue segment obtained from remaining corneal portions other than the central 8 mm corneal portion in cadaveric cornea donated for transplantation and a corneal endothelial tissue segment of a normal rabbit were cultured. Then, each of the corneal tissues was divided into 6 pieces and washed by shaking 6 times in a petri dish to which 7 ml of 5% penicillin/streptomycin (P/S) was added. Then, the washed tissues were each transferred to a 6-well dish such that the endothelial layer was facing down, and the tissues were semi-dried until the dishes were slightly drained. […]
Experiments have been carried to identify angiogenin effects on migration and proliferation of the corneal endothelial cells. […] At every 0 hour, 12 hours, 24 hours, and 48 hours, digital images of the remaining wounded areas were obtained at 40× magnification of the optical microscope, and measured in pixels by using the Image J software. […] At every 6 hours and 24 hours, the wounded areas were measured by using the Image J software. The ratio of initial wounded area versus recovered area was defined as wound healing index, which is calculated as shown below. […]
Experiments have been carried to identify optimal concentration of angiogenin to improve in vitro migration and proliferation improvement of the cultured human corneal endothelial cells. […] At every 0 hour, 12 hours, 24 hours, and 48 hours, the wounded areas were measured by using the Image J software. […]

[4] = 48 h after freeze damage, instillation 50 μl (angiogenin 200 μg/mL, Y-27632 10 mM), grade 0 transparent to +4.0 turbid (Table 1)
[5] = 72 h after freeze damage, instillation 50 μl (angiogenin 200 μg/mL, Y-27632 10 mM, LY294002 200 μM), grade 0 to +4.0 (Table 1)
[6] = 144 h after freeze damage, instillation 50 μl (angiogenin 200 μg/mL, Y-27632 10 mM), grade 0 to +4.0 (Table 1)
[7] = 192 h after freeze damage, instillation 50 μl (angiogenin 200 μg/mL, Y-27632 10 mM), grade 0 to +4.0 (Table 1)
[8] = 48 h after freeze damage, maximum measurable value 1,000 μm
[9] = 72 h after freeze damage, maximum measurable value 1,000 μm
[10] = 144 h after freeze damage, angiogenin 200 μg/mL, Y-27632 10 mM instillation, mean ± SE
[11] = 192 h after freeze damage, angiogenin 200 μg/mL, Y-27632 10 mM instillation, mean ± SE

| Compound | Grade of corneal transparency (by using slit-lamp biomicroscope) [1, 4] | Grade of corneal transparency (by using slit-lamp biomicroscope) [1, 5] | Grade of corneal transparency (by using slit-lamp biomicroscope) [1, 6] | Grade of corneal transparency (by using slit-lamp biomicroscope) [1, 7] | Central corneal thickness ([2]; 0 h (baseline), mean ± SE) | Central corneal thickness [2, 8] | Central corneal thickness [2, 9] | Central corneal thickness [2, 10] | Central corneal thickness [2, 11] | Wound healing index compared with the control group [3] | Central corneal thickness ([2]; 144 h after freeze damage, angiogenin 200 μg/mL, Y-27632 10 mM instillation, mean ± SE, listed as angiogenin) | Central corneal thickness ([2]; 192 h after freeze damage, angiogenin 200 μg/mL, Y-27632 10 mM instillation, mean ± SE, listed as angiogenin) | Angiogenin concentration giving the highest wound healing index ([3]; 1, 2, 5 and 10 μg/ml tested, 0, 12, 24, 48 hours) |
| --- | --- | --- | --- | --- | --- | --- | --- | --- | --- | --- | --- | --- | --- |
| C[C@@H](N)[C@H]1CC[C@H](C(=O)Nc2ccncc2)CC1 [Y-27632, reference compound] | 4.00 ± 0 | 3.00 ± 0.41 | 1.38 ± 0.38 | 1.38 ± 0.38 | 361.7 ± 3.4 μm | >1,000 μm | >1,000 μm | 571.6 ± 43.0 μm | 432.5 ± 332.2 μm | high wound healing index |  |  |  |
| Angiogenin: 14.4-kDa single chain protein of 123 amino acids, secreted protein capable of inducing angiogenesis | 4.00 ± 0 | 2.65 ± 0.37 | 1.29 ± 0.26 | 1.29 ± 0.26 | 350.4 ± 6.2 μm | >1,000 μm | >1,000 μm | 503.0 ± 21.1 μm | 390.3 ± 10.5 μm | high wound healing index | about 503.0±21.07 μm | about 390.3±10.55 μm | 5 µg/mL |
